Reference: patent US11702424B2, “Bicyclic-fused heteroaryl or aryl compounds” (Pfizer Inc., priority 2014, dated 2023)

Assays:
[1] = tested on: collagen-induced arthritis; assay: In Vivo Rat Collagen-Induced Arthritis Model; details: Lewis rat CIA; for days on which hind paw swelling in CIA rats was significantly reduced (t-test, p<0.05 vs. vehicle): paw volume by plethysmograph
Protocol: In Vivo Rat Collagen-Induced Arthritis Model.
Efficacy of IRAK4 compounds of the present invention was also evaluated in a rat in vivo model of rheumatoid arthritis (M. Hegen, J. C. Keith, Jr, M. Collins, C. L. Nickerson-Nutter, Ann. Rheum. Dis. 2008, 67, 1505-1515). An exemplary protocol for this in vivo model follows.
Female Lewis rats, approximately 7 weeks old, were immunized with an emulsion of type II collagen (CII) and incomplete Freund's adjuvant (IFA) on day 0 and received a boost of CII/IFA on day 7. Hind paw volume increase was taken by plethysmograph. Animals were randomly enrolled into treatment groups based on the development of disease. Beginning on day 11 post immunization, rats were enrolled into random treatment groups based on an increase in a single hind paw volume compared to day 7 post immunization baseline measurements.
Ten rats were enrolled per treatment group with the exception of the naive control group, which contained two rats. Day 0 was designated as the first treatment day, and paw measurements are taken daily by plethysmograph. The rats were weighed on a daily basis.
IRAK4 inhibitors are efficacious in the Lewis rat model of collagen-induced arthritis.

serum TNF = assay: In Vivo Mouse LPS/D-Gal Challenge Model; details: oral, serum TNF vs. vehicle
Protocol: In Vivo Mouse LPS/D-Gal Challenge Model.
Efficacy of IRAK4 compounds of the present invention was also evaluated in an in vivo mouse model of endotoxin induced (Lipopolysaccharide (LPS)) inflammation. See: S. Copeland, H. W. Warren, S. F. Lowry, S. E. Calvano, and D. Remick, Clin. Diagn. Lab. Immnol. 2005, 12(1), 60-67. An exemplary protocol for this in vivo model follows.
Female C57/BL6 mice, 8 to 10 weeks old, are orally administered either vehicle or formulated IRAK-4 compound 1 hour prior to the challenge. Vehicle or IRAK4 compound is administered by oral gavage at a volume of 10 mL/kg. One hour post oral delivery of vehicle or compound, the animals are challenged with an intraperitoneal injection (IP) of a solution containing 1 μg/mL LPS and 80 mg/mL D-gal. Each mouse is injected with […] of the solution, for a final challenge dose of 100 ng LPS and 8 mg D-gal. Ninety minutes post LPS/D-gal challenge, animals are euthanized and blood collected. Blood is allowed to clot at room temperature and serum is separated by centrifugation and stored at −80° C. for analysis. Serum TNF and IL-6 are measured by Meso Scale Discovery (MSD) multiplex platform.
The groups consisted of N=10 animals/group. Naïve animals and vehicle control groups were run with each study. Mean cytokine data was plotted and students T-test was performed to calculate significance (t-test, p<0.05 vs. vehicle) of IRAK4 treated group vs. vehicle treated group. Percent inhibition of cytokine induction was calculated for IRAK4 treated group vs. vehicle treated group.
Table 4 contains data from multiple studies with columns for Compound, Dose in mg/kg (mpk) and % inhibition of serum TNF. In cases where doses of certain compounds were repeated in multiple experiments, the average percent inhibition of TNF and standard deviation is shown in the table.

[2] = target: human IRAK4 FL (Full Length) (Homo sapiens (Human), UniProt Q9NWZ3); assay: IRAK4 Enzymatic DELFIA Assay, Protocol A; format: biochemical; details: 0.6 mM ATP (KM)
Sequence of human IRAK4 FL (Full Length) (Q9NWZ3 whole entry): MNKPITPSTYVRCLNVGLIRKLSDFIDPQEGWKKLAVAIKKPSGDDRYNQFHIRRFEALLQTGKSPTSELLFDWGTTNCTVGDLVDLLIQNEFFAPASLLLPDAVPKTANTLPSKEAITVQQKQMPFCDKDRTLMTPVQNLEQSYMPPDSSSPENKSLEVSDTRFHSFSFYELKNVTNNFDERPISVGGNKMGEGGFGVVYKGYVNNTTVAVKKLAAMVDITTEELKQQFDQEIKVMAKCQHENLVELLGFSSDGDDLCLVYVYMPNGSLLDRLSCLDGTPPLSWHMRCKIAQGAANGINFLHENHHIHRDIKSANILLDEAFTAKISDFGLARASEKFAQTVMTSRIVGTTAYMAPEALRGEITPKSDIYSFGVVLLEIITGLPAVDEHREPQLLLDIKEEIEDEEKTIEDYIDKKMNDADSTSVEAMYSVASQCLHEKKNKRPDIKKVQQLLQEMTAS

Cc1ccc(-n2nc(C(C)(C)C)cc2NC(=O)Nc2ccc(OCCN3CCOCC3)c3ccccc23)cc1 [BIRB796, reference compound]
days on which hind paw swelling in CIA rats was significantly reduced (t-test, p<0.05 vs. vehicle) ([1]; 30 mg/kg PO, QD, positive control (p38 inhibitor)): Day 1-Day 8

CC(C)Oc1cc2c(OC[C@@H]3CCC(=O)N3)nccc2cc1C(N)=O [Example 26, 1-{[(2S)-5-oxopyrrolidin-2-yl]methoxy}-7-(propan-2-yloxy)isoquinoline-6-carboxamide]
hind paw swelling (delta paw volume) ([1]; 10 mg/kg PO, BID): transiently significant reduction in hind paw swelling only on Day 5 and Day 6
days on which hind paw swelling in CIA rats was significantly reduced (t-test, p<0.05 vs. vehicle) ([1]; 30 mg/kg PO, BID, therapeutic treatment for 8 days): Day 2-Day 8
days on which hind paw swelling in CIA rats was significantly reduced (t-test, p<0.05 vs. vehicle) ([1]; 100 mg/kg PO, BID, therapeutic treatment for 8 days): Day 1-Day 8 (end)
hind paw swelling (delta paw volume) ([1]; therapeutic treatment BID daily for 8 days, t-test p<0.05 vs. vehicle): reduced the hind paw swelling in CIA rats significantly

COc1cc2c(OC[C@@H]3CCC(=O)N3)cccc2cc1C(N)=O [Example 173, 3-methoxy-5-{[(2S)-5-oxopyrrolidin-2-yl]methoxy}naphthalene-2-carboxamide]
% inhib TNF (serum TNF; dose 30 mpk): 55%
% inhib TNF (serum TNF; dose 100 mpk): 98%

COc1cc2c(OC[C@H]3NC(=O)[C@@H](F)[C@H]3C)nccc2cc1C(N)=O [Example 189, 1-{[(2S,3S,4S)-4-fluoro-3-methyl-5-oxopyrrolidin-2-yl]methoxy}-7-methoxyisoquinoline-6-carboxamide]
% inhib TNF (serum TNF; dose 30 mpk): 40%

CC(C)Oc1cc2c(OC[C@@H]3C[C@@H](C4(O)COC4)C(=O)N3)nccc2cc1C(N)=O [Example 193, 1-{[(2S,4S)-4-(3-hydroxyoxetan-3-yl)-5-oxopyrrolidin-2-yl]methoxy}-7-(propan-2-yloxy)isoquinoline-6-carboxamide]
IC50 [2]: 238 nM

COc1cc2c(OC[C@@H]3C[C@](C)(F)C(=O)N3)cccc2cc1C(N)=O [Example 194, 5-{[(2S,4S)-4-fluoro-4-methyl-5-oxopyrrolidin-2-yl]methoxy}-3-methoxynaphthalene-2-carboxamide]
% inhib TNF (serum TNF; dose 30 mpk): 76%
